Data taken from patent US20120064528A1, “METHODS AND REAGENTS FOR QUANTIFYING NUCLEIC ACID FRAGMENTATION AND APOPTOSIS (QLM-PCR, CELL NUMBER QPCR AND APOQPCR)” (THE MACFARLANE BURNET INSTITUTE FOR MEDICAL RESEARCH AND …, priority 2010, published 2012).
“Also recorded” adds a separate entry of the source.

Tests used:
Jurkat cells [1] = assay: Apoptosis measured by TUNEL with flow cytometry; assay type: cell-based, human
Description: To verify the definition of 100% apoptotic DNA, apoptosis was measured by TUNEL with flow cytometry from fractions of the same cultured cells used for genomic nucleic acid purification (above). At each time point and each staurosporine concentration, cells (6 ml) were collected, washed twice with PBS and resuspended in PBS to 2×10^7 cells/ml for duplicate 100 μl cells per micro-well. TUNEL procedure for cell suspensions followed the In Situ Cell Death Detection Kit, Flourescein (Roche, Mannheim, Germany) with the following modifications: after pelleting cells in wells, supernatant was aspirated and cells gently resuspended in 100 μl/well of fixation/permeabilisation solution (Cytofix/Cytoperm kit, BD Biosciences/Pharmingen, CA, USA). After incubation for 20 minutes at 4° C., cells were washed at this and subsequent wash stages 2 times at room temperature with perm/wash buffer (Cytofix/Cytoperm kit). After final washes, cells were resuspended in 250 μl/well 1% paraformaldehyde in PBS, stored at 4° C. in the dark for up to 12 hours and analyzed by flow cytometry at excitation 488 nm, detection 530 nm using a BD FACScan (BD Biosciences). At each measurement at least 10,000 events were sorted. Mean TUNEL positivity for cells incubated for 5 hours without staurosporine was 3%, while positivity for cells incubated for 5 hours with 8 μM staurosporine was 98.5% (FIG. 3).

Jurkat cells [2] = assay: Genomic DNA fragmentation by agarose gel electrophoresis and trace intensity; assay type: cell-based, human; settings: 5 hours
Description: Jurkat cells were grown to log phase in RF-10 tissue culture medium, pelleted and resuspended to 10^6 cells/ ml in new RF-10 at 37° C., and incubated at 37° C. with or without staurosporine (at 4 or 8 μM) for 5 and 6 hours. At the end-points, genomic DNA was purified using Qiagen DNA mini-prep columns following the manufacturer's recommendations, including RNase treatment and stored at −80° C. These columns quantitatively purify nucleic acid in the target size range of 200 by to 50 kbp. Nucleic acid for each end-point was compared by agarose gel electrophoresis. The generation of 100% apoptotic nucleic acid was defined as the complete absence of any typically high molecular weight genomic nucleic acid and complete conversion of this length of nucleic acid into apoptotic fragments, as determined by trace intensity using a GelDoc Imager (BioRad). […] The same experiment from cell culture to nucleic acid purification was repeated to test reproducibility. Nucleic acid from both experiments was electrophoresed together and trace intensities compared (FIG. 2C).

## CN[C@@H]1C[C@H]2O[C@@](C)([C@@H]1OC)n1c3ccccc3c3c4c(c5c6ccccc6n2c5c31)C(=O)NC4 [staurosporine]
Jurkat cells [1]; 8 μM staurosporine, 5 hours
  Mean TUNEL positivity: 98.5%
Jurkat cells [1]; optimal test conditions
  apoptotic cells by TUNEL with flow cytometry (FACS): 99%
Jurkat cells [2]; 4 μM staurosporine, 37° C.
  unfragmented high molecular weight genomic nucleic acid remaining, by trace quantification: 1.8%
Jurkat cells [2]; 8 μM staurosporine, 37° C. (optimal conditions)
  DNA fragmentation as determined by trace analysis: all DNA was fragmented; also recorded: unfragmented nucleic acid was not detected
